Measurements taken from ChEMBL document CHEMBL4507300 (2021).

Legend:
[1] = target: T1, 5-hydroxytryptamine receptor 2B (Homo sapiens, UniProt P41595); assay: GPCRScan assay: inhibition of 5-HT2B; parameters: radioligand conc. used [nm] 1.0 – 2.0, parental cells stable HEK
[2] = target: T2, Sodium-dependent serotonin transporter (Homo sapiens, UniProt P31645); assay: GPCRScan assay: inhibition of SERT; parameters: radioligand conc. used [nm] 1.5 – 2.0, parental cells stable HEK
Histamine H1 receptor [3] = target: T3, Histamine H1 receptor (Homo sapiens, UniProt P35367); assay: GPCRScan assay: inhibition of H1; parameters: radioligand conc. used [nm] 0.6 – 2.0, parental cells stable HEK
T3 sequence (P35367 whole entry): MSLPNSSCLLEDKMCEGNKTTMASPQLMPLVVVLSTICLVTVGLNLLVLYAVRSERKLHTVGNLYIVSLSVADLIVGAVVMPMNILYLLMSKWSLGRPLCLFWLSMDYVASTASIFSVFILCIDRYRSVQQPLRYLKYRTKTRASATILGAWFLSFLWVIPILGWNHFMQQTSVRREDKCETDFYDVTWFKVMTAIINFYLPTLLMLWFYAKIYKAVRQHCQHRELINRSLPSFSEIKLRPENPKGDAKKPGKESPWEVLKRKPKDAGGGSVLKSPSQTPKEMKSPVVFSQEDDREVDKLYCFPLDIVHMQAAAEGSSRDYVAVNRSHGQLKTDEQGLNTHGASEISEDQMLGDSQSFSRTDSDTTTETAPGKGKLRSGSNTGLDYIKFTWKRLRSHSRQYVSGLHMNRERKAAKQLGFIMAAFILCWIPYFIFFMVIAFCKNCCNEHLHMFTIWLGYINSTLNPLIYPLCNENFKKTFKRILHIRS

[4] = target: T4, Sigma non-opioid intracellular receptor 1 (Homo sapiens, UniProt Q99720); assay: GPCRScan assay: inhibition of Sigma 1; parameters: radioligand conc. used [nm] 4.0 – 5.0, parental cells HEKT
T4 sequence (Q99720 whole entry): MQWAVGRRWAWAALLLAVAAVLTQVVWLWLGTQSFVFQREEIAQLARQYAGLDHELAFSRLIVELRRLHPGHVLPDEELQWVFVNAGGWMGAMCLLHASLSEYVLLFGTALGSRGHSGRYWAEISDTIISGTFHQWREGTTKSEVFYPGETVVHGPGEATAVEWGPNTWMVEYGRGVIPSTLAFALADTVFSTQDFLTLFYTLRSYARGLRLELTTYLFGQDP

[5] = target: 5-hydroxytryptamine receptor 1A (Homo sapiens) (UniProt P08908); conditions: Compound concentration 10.0 uM
[6] = target: 5-hydroxytryptamine receptor 1B (Homo sapiens) (UniProt P28222); conditions: Compound concentration 10.0 uM
[7] = target: 5-hydroxytryptamine receptor 1D (Homo sapiens) (UniProt P28221); conditions: Compound concentration 10.0 uM
Sequence of 5-hydroxytryptamine receptor 1D (Homo sapiens) (P28221 whole entry): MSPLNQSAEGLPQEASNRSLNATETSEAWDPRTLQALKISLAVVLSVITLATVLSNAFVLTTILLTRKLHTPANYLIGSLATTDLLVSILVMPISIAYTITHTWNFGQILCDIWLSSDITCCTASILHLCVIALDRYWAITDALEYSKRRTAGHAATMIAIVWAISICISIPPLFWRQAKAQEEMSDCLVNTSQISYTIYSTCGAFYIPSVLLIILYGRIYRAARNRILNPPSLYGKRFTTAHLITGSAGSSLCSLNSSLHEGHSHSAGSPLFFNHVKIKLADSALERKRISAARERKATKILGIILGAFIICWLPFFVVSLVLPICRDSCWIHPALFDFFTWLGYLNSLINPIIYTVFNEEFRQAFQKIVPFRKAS

[8] = target: 5-hydroxytryptamine receptor 1E (Homo sapiens) (UniProt P28566); conditions: Compound concentration 10.0 uM
Sequence of 5-hydroxytryptamine receptor 1E (Homo sapiens) (P28566 whole entry): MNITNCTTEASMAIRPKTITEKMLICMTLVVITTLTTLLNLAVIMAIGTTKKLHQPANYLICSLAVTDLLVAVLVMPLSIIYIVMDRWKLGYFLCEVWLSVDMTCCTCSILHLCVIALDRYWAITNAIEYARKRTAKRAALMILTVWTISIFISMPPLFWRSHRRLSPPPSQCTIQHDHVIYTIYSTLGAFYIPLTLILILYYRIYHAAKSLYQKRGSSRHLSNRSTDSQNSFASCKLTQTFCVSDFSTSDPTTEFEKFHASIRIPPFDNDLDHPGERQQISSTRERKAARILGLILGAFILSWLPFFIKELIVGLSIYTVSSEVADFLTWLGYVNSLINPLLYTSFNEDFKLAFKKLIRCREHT

[9] = target: 5-hydroxytryptamine receptor 2A (Homo sapiens) (UniProt P28223); conditions: Compound concentration 10.0 uM
[10] = target: T1, 5-hydroxytryptamine receptor 2B; conditions: Compound concentration 10.0 uM
[11] = target: 5-hydroxytryptamine receptor 2C (Homo sapiens) (UniProt P28335); conditions: Compound concentration 10.0 uM
[12] = target: 5-hydroxytryptamine receptor 3A (Homo sapiens) (UniProt P46098); conditions: Compound concentration 10.0 uM
[13] = target: 5-hydroxytryptamine receptor 5A (Homo sapiens) (UniProt P47898); conditions: Compound concentration 10.0 uM
[14] = target: 5-hydroxytryptamine receptor 6 (Homo sapiens) (UniProt P50406); conditions: Compound concentration 10.0 uM
[15] = target: 5-hydroxytryptamine receptor 7 (Homo sapiens) (UniProt P34969); conditions: Compound concentration 10.0 uM
[16] = target: D(2) dopamine receptor (Homo sapiens) (UniProt P14416); conditions: Compound concentration 10.0 uM
[17] = target: D(3) dopamine receptor (Homo sapiens) (UniProt P35462); conditions: Compound concentration 10.0 uM
[18] = target: D(4) dopamine receptor (Homo sapiens) (UniProt P21917); conditions: Compound concentration 10.0 uM
Sequence of D(4) dopamine receptor (Homo sapiens) (P21917 whole entry): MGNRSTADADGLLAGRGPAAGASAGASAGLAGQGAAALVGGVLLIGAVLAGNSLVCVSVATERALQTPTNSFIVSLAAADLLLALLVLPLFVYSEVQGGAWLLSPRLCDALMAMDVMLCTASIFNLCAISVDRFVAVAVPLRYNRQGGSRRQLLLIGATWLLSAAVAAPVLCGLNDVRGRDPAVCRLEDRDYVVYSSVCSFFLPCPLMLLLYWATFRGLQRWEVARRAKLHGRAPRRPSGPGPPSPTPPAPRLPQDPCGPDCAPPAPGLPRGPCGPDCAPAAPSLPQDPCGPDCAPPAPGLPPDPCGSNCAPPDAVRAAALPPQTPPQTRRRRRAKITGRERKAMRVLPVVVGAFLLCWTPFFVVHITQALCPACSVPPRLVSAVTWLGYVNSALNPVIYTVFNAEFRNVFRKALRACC

[19] = target: D(1B) dopamine receptor (Homo sapiens) (UniProt P21918); conditions: Compound concentration 10.0 uM
[20] = target: T2, Sodium-dependent serotonin transporter; conditions: Compound concentration 10.0 uM
[21] = target: Sodium-dependent noradrenaline transporter (Homo sapiens) (UniProt P23975); conditions: Compound concentration 10.0 uM
Sequence of Sodium-dependent noradrenaline transporter (Homo sapiens) (P23975 whole entry): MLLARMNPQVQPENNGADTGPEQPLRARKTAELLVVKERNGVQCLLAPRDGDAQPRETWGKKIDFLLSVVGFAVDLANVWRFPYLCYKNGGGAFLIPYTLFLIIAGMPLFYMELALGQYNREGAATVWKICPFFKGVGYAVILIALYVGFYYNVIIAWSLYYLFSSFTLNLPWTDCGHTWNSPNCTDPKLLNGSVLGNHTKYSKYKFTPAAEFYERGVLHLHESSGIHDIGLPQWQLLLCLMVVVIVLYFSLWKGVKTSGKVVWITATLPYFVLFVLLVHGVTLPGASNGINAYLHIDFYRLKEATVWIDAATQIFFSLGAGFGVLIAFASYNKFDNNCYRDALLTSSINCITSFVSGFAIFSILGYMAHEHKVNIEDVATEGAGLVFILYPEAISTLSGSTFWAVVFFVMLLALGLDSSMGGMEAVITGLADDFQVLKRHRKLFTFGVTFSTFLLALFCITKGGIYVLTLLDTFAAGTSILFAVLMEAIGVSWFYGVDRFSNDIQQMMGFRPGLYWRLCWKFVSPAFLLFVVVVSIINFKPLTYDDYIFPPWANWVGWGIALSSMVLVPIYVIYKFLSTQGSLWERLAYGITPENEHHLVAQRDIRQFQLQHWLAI

[22] = target: Sodium-dependent dopamine transporter (Homo sapiens) (UniProt Q01959); conditions: Compound concentration 10.0 uM
[23] = target: Mu-type opioid receptor (Homo sapiens) (UniProt P35372); conditions: Compound concentration 10.0 uM
Sequence of Mu-type opioid receptor (Homo sapiens) (P35372 whole entry): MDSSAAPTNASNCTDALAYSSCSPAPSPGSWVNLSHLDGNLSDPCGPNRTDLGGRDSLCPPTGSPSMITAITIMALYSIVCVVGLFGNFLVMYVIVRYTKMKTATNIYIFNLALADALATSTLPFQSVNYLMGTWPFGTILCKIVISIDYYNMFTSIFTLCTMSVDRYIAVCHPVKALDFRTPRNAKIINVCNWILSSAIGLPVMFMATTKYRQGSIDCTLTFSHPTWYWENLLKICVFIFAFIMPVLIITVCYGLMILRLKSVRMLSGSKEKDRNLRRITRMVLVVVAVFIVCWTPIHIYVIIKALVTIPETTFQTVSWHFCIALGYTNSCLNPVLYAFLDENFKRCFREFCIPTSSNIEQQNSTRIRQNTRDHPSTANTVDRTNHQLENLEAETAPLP

[24] = target: Delta-type opioid receptor (Homo sapiens) (UniProt P41143); conditions: Compound concentration 10.0 uM
[25] = target: Kappa-type opioid receptor (Homo sapiens) (UniProt P41145); conditions: Compound concentration 10.0 uM
[26] = target: T5, GABA-A receptor; anion channel (Rattus norvegicus) (UniProt O09028+P15431+P18506+P18508+P19969+P20236+P23574+P23576+P28471+P28473+P30191+P62813+P63079+P63138+Q91ZM7+Q9ES14); conditions: Compound concentration 10.0 uM
Histamine H1 receptor [27] = target: T3, Histamine H1 receptor; conditions: Compound concentration 10.0 uM
[28] = target: Histamine H2 receptor (Homo sapiens) (UniProt P25021); conditions: Compound concentration 10.0 uM
[29] = target: Histamine H3 receptor (Homo sapiens) (UniProt Q9Y5N1); conditions: Compound concentration 10.0 uM
[30] = target: Histamine H4 receptor (Homo sapiens) (UniProt Q9H3N8); conditions: Compound concentration 10.0 uM
Sequence of Histamine H4 receptor (Homo sapiens) (Q9H3N8 whole entry): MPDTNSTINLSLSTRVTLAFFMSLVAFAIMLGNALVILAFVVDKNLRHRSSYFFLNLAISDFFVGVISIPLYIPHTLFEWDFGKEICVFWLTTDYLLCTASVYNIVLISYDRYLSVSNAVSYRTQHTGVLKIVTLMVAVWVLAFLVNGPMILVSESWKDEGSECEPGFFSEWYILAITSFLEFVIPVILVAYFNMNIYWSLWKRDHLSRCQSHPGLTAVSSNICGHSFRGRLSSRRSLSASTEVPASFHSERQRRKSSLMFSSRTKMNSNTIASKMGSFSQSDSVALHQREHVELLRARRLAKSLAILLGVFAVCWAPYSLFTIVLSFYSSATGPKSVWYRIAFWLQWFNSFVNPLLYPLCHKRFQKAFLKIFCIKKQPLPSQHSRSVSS

[31] = target: Alpha-1A adrenergic receptor (Homo sapiens) (UniProt P35348); conditions: Compound concentration 10.0 uM
[32] = target: Alpha-1B adrenergic receptor (Homo sapiens) (UniProt P35368); conditions: Compound concentration 10.0 uM
[33] = target: Alpha-2A adrenergic receptor (Homo sapiens) (UniProt P08913); conditions: Compound concentration 10.0 uM
[34] = target: Alpha-2B adrenergic receptor (Homo sapiens) (UniProt P18089); conditions: Compound concentration 10.0 uM
Sequence of Alpha-2B adrenergic receptor (Homo sapiens) (P18089 whole entry): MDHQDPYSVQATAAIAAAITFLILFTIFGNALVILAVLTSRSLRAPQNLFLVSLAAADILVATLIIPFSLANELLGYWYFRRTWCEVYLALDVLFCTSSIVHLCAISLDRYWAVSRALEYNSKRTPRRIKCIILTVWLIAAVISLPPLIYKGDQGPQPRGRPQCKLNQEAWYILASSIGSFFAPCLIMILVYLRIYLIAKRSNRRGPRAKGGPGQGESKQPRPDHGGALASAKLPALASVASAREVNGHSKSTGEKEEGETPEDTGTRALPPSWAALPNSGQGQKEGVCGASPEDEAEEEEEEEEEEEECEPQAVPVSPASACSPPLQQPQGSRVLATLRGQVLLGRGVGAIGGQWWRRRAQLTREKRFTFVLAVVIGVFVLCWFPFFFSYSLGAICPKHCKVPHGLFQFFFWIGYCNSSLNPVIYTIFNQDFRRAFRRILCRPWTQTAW

[35] = target: Alpha-2C adrenergic receptor (Homo sapiens) (UniProt P18825); conditions: Compound concentration 10.0 uM
[36] = target: Beta-1 adrenergic receptor (Homo sapiens) (UniProt P08588); conditions: Compound concentration 10.0 uM
Sequence of Beta-1 adrenergic receptor (Homo sapiens) (P08588 whole entry, looked up): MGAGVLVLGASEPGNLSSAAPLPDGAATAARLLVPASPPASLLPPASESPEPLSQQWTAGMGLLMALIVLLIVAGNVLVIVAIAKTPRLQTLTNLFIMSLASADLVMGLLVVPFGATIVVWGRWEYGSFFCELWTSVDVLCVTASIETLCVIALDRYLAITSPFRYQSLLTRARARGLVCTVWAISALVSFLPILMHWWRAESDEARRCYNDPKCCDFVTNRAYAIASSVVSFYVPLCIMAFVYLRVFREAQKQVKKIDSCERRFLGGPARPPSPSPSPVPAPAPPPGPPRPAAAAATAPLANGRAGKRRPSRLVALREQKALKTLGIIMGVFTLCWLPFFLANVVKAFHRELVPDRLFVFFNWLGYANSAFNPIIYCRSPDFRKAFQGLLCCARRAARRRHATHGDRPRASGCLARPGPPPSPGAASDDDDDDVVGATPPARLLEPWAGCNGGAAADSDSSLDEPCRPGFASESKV

[37] = target: Beta-2 adrenergic receptor (Homo sapiens) (UniProt P07550); conditions: Compound concentration 10.0 uM
[38] = target: Muscarinic acetylcholine receptor M1 (Homo sapiens) (UniProt P11229); conditions: Compound concentration 10.0 uM
[39] = target: Muscarinic acetylcholine receptor M2 (Homo sapiens) (UniProt P08172); conditions: Compound concentration 10.0 uM
[40] = target: Muscarinic acetylcholine receptor M5 (Homo sapiens) (UniProt P08912); conditions: Compound concentration 10.0 uM
[41] = target: Beta-3 adrenergic receptor (Homo sapiens) (UniProt P13945); conditions: Compound concentration 10.0 uM
[42] = target: T5, GABA-A receptor; anion channel (Rattus norvegicus); conditions: Compound concentration 10.0 uM; remark: listed apart in the source
Rattus norvegicus = organism: Rattus norvegicus; conditions: Compound concentration 10.0 uM
[43] = target: Alpha-1D adrenergic receptor (Homo sapiens) (UniProt P25100); conditions: Compound concentration 10.0 uM
[44] = target: T4, Sigma non-opioid intracellular receptor 1; conditions: Compound concentration 10.0 uM

T1 sequence (P41595 whole entry): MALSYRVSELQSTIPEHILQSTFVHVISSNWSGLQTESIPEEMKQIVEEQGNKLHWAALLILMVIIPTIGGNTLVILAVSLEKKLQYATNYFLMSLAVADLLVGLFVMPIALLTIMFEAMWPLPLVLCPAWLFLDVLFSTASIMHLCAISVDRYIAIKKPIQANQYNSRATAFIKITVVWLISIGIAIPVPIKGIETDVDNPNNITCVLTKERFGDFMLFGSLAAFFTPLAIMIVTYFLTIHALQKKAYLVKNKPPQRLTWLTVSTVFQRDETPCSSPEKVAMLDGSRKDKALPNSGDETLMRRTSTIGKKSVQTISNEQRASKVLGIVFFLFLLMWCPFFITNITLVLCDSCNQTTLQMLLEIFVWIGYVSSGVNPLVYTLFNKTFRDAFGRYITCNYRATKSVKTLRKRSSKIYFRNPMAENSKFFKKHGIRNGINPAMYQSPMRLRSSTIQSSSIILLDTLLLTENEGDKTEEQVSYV

Structure (SMILES): COc1cccc(CNC(=O)c2nc3scc(CN(C)Cc4ccccc4)c3c(=O)[nH]2)c1 [T-26f]
- Ki [1]: 1600 nM
- Ki [2]: 831 nM
- Ki (Histamine H1 receptor [3]): 19 nM
- Ki [4]: 263 nM
- inhibition [5]: 15.8%
- inhibition [6]: -2.26%
- inhibition [7]: -0.959%
- inhibition [8]: -0.688%
- inhibition [9]: 14.9%
- inhibition [10]: 51%
- inhibition [11]: 13.5%
- inhibition [12]: 20.4%
- inhibition [13]: 2.98%
- inhibition [14]: 3.76%
- inhibition [15]: -5.94%
- inhibition [16]: 12.5%
- inhibition [17]: 20.1%
- inhibition [18]: 14.4%
- inhibition [19]: 2.81%
- inhibition [20]: 84%
- inhibition [21]: 19.6%
- inhibition [22]: -7.85%
- inhibition [23]: 2.84%
- inhibition [24]: -5.54%
- inhibition [25]: 14.2%
- inhibition [26]: 30.5%
- inhibition (Histamine H1 receptor [27]): 73.4%
- inhibition [28]: 30.7%
- inhibition [29]: 6.01%
- inhibition [30]: 21%
- inhibition [31]: 12.5%
- inhibition [32]: 12.9%
- inhibition [33]: 27.3%
- inhibition [34]: 17.4%
- inhibition [35]: 16.3%
- inhibition [36]: 30.9%
- inhibition [37]: -6.8%
- inhibition [38]: -8.97%
- inhibition [39]: 26.6%
- inhibition [40]: 2.67%
- inhibition [41]: -4.01%
- inhibition [42]: 32.4%
- inhibition (Rattus norvegicus): 18.5%
- inhibition [43]: 12.7%
- inhibition [44]: 80.7%
